Holding throughout (format): cell-based, human
Series [1] concerns MDA231 cells expressing CD/UPRT. As to the kind of experiment: Flura-tagged mRNA immunoprecipitation from MDA231 CD/UPRT cells co-cultured with mouse 4T1 cells, RT-PCR. Conditions: 12 h, 100-1000 MDA231 cells to 10^6 4T1 cells. How it is done:
FIG. 1a-f. Labeling and purification of RNA by CD expression and 5-FC treatment. FIG. 1a—Schematic diagram showing RNA labeling using CD and 5-FC. FIG. 1b—Chemical reactions steps involved in the labeling of RNA using CD and 5-FC. The dotted arrow indicates the intermediary steps that are not shown. FIG. 1c Relative fold enrichment of mRNA isolated by Flura-tagging. 293T cells expressing CD or unlabeled controls were treated with 5-FC for the indicated times, labeled mRNAs were immunopurified using anti-BrdU antibody, and the levels of labeled mRNAs of the indicated genes relative to corresponding non-immunoprecipitated inputs normalized to immunopurified mRNAs from cells not expressing CD were quantified by RT-PCR. […] Cells were analyzed by immunofluorescence or harvested for RNA analysis. […] The fold enrichment of the indicated representative human genes over mouse housekeeping genes (mHPRT1 and mLDH1) was measured by RT-PCR (n=3±S.E.). […]
Next, we determined whether this system could be used to isolate RNA specifically from cells of interest that were admixed with a large proportion of other cells. […] After 12 h of 5-FC addition, 5-FU-labeled mRNAs were immunoprecipitated, and the proportion of human and mouse mRNA for representative housekeeping genes were determined by reverse transcriptase-polymerase chain reaction (RT-PCR). […]

The subject of series [2] is MDA-MB-231 cells. Put plainly: co-culture of CD-expressing MDA231 cells with unlabeled control cells, anti-BrdU immunostaining. The following applies: CD only, without UPRT and thymine. How it is done:
(§1) FIG. 1a-f. Labeling and purification of RNA by CD expression and 5-FC treatment. FIG. 1a—Schematic diagram showing RNA labeling using CD and 5-FC. FIG. 1b—Chemical reactions steps involved in the labeling of RNA using CD and 5-FC. The dotted arrow indicates the intermediary steps that are not shown. FIG. 1c Relative fold enrichment of mRNA isolated by Flura-tagging. 293T cells expressing CD or unlabeled controls were treated with 5-FC for the indicated times, labeled mRNAs were immunopurified using anti-BrdU antibody, and the levels of labeled mRNAs of the indicated genes relative to corresponding non-immunoprecipitated inputs normalized to immunopurified mRNAs from cells not expressing CD were quantified by RT-PCR. […] FIG. 1d—Schematic diagram of the constructs used for inducible expression of UPRT and/or CD, and the experimental design. Transduced RFP+MDA231 cells were mixed with unlabeled cells, treated with doxycycline for 24 h and then 5-FC for 4-12 h. Cells were analyzed by immunofluorescence or harvested for RNA analysis. FIG. 1e—Flura-tagging in MDA231 cells in vitro. […] The fold enrichment of the indicated representative human genes over mouse housekeeping genes (mHPRT1 and mLDH1) was measured by RT-PCR (n=3±S.E.). […]
(§2) Next, we determined whether 5-FU-labeled mRNAs can be specifically and efficiently isolated by immunoprecipitation. […]

Series [3] has as its system 293T cells expressing CD. Put plainly: immunopurification of labeled mRNAs with anti-BrdU antibody and RT-PCR, CD-expressing 293T cells. How it is done: as §1, §2

Consider `Nc1nc(=O)[nH]cc1F` [5-FC, 5-fluorocytosine], for which the “enrichment of human mRNAs compared to mouse mRNAs” value in series [1] is listed as “more than 10^5 fold”. In addition, in series [2], the “5-FU-labeling of neighboring cells not expressing CD” value is “led to 5-FU-labeling of cells that did not express CD as well”. In addition, in series [3], the “time for which labeling continued to increase” value was “up to 24 h”. Besides, the “time after treatment at which labeled mRNAs were detectable” value in series [3] (three representative genes) came to 2 h.

The values are drawn from patent publication US20200032249A1, “LABELING, ISOLATION, & ANALYSIS OF RNA FROM RARE CELL POPULATIONS” (priority 2017, published 2020).
